Reference: patent publication US12077503B2, “Substituted cyclic amides and their use as herbicides” (FMC CORPORATION, priority 2015, dated 2024)

Experiments:
Type in all cases: in vivo
[1] = system: giant foxtail (Setaria faberi); experiment: Test G Post-Emergence Protocol; settings: Setaria faberi, post-emergence, 312 h; for pest or weed control at 15.625 g/ha: 15.625 g ai/ha, evaluated after 13 days (100=total damage to plant; 0=no damage to plant), read-out: Foxtail, Giant damage rating; for pest or weed control at 62.5 g/ha: 62.5 g ai/ha, read-out: Foxtail, Giant damage rating (100=total damage to plant; 0=no damage to plant); for pest or weed control at 62.5 g/ha / pest or weed control at 250 g/ha: evaluated after 13 days; for pest or weed control at 250 g/ha: 250 g ai/ha, read-out: damage to plant, Foxtail, Giant (100=total damage to plant; 0=no damage to plant)
In short: (§1)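 Foliar application was made 8 days after sowing, using an aqueous spray of the active in acetone/water (50:50) with 0.5% Tween 20, at doses of 15.625, 62.5 or 250 g/ha. Injury was assessed 13 days later, where 100 meant the plant was fully damaged.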

corn (Zea mays) [2] = experiment: Test G Post-Emergence Protocol; settings: Zea mays, post-emergence, 312 h; for plant injury at 15.625 g/ha: 15.625 g ai/ha, evaluated after 13 days (100=total damage to plant; 0=no damage to plant), read-out: Corn damage rating; for plant injury at 62.5 g/ha: 62.5 g ai/ha, read-out: Corn damage rating (100=total damage to plant; 0=no damage to plant); for plant injury at 62.5 g/ha / plant injury at 250 g/ha: evaluated after 13 days; for plant injury at 250 g/ha: 250 g ai/ha, read-out: damage to plant, Corn (100=total damage to plant; 0=no damage to plant)
In short: as §1

[3] = system: redroot pigweed (Amaranthus retroflexus); experiment: Test G Post-Emergence Protocol; settings: Amaranthus retroflexus, post-emergence, 312 h; for pest or weed control at 15.625 g/ha: 15.625 g ai/ha, evaluated after 13 days (100=total damage to plant; 0=no damage to plant), read-out: Pigweed, Redroot damage rating; for pest or weed control at 62.5 g/ha: 62.5 g ai/ha, read-out: Pigweed, Redroot damage rating (100=total damage to plant; 0=no damage to plant); for pest or weed control at 62.5 g/ha / pest or weed control at 250 g/ha: evaluated after 13 days; for pest or weed control at 250 g/ha: 250 g ai/ha, read-out: damage to plant, Pigweed, Redroot (100=total damage to plant; 0=no damage to plant)
In short: as §1

[4] = system: ivy-leaved morning glory (Ipomoea hederacea); experiment: Test G Post-Emergence Protocol; settings: Ipomoea, post-emergence, 312 h; for pest or weed control at 15.625 g/ha: 15.625 g ai/ha, evaluated after 13 days (100=total damage to plant; 0=no damage to plant), read-out: Morningglory, Ivy-leaved damage rating; for pest or weed control at 62.5 g/ha: 62.5 g ai/ha, read-out: Morningglory, Ivy-leaved damage rating (100=total damage to plant; 0=no damage to plant); for pest or weed control at 62.5 g/ha / pest or weed control at 250 g/ha: evaluated after 13 days; for pest or weed control at 250 g/ha: 250 g ai/ha, read-out: damage to plant, Morningglory, Ivy-leaved (100=total damage to plant; 0=no damage to plant)
In short: as §1

[5] = system: barnyardgrass (Echinochloa crus-galli); experiment: Test G Post-Emergence Protocol; settings: Echinochloa crus-galli, post-emergence, 312 h; for pest or weed control at 15.625 g/ha: 15.625 g ai/ha, evaluated after 13 days (100=total damage to plant; 0=no damage to plant), read-out: Barnyardgrass damage rating; for pest or weed control at 62.5 g/ha: 62.5 g ai/ha, read-out: Barnyardgrass damage rating (100=total damage to plant; 0=no damage to plant); for pest or weed control at 62.5 g/ha / pest or weed control at 250 g/ha: evaluated after 13 days; for pest or weed control at 250 g/ha: 250 g ai/ha, read-out: damage to plant, Barnyardgrass (100=total damage to plant; 0=no damage to plant)
In short: as §1

[6] = system: velvetleaf (Abutilon theophrasti); experiment: Test G Post-Emergence Protocol; settings: Abutilon theophrasti, post-emergence, 312 h; for pest or weed control at 15.625 g/ha: 15.625 g ai/ha, evaluated after 13 days (100=total damage to plant; 0=no damage to plant), read-out: Velvetleaf damage rating; for pest or weed control at 62.5 g/ha: 62.5 g ai/ha, read-out: Velvetleaf damage rating (100=total damage to plant; 0=no damage to plant); for pest or weed control at 62.5 g/ha / pest or weed control at 250 g/ha: evaluated after 13 days; for pest or weed control at 250 g/ha: 250 g ai/ha, read-out: damage to plant, Velvetleaf (100=total damage to plant; 0=no damage to plant)
In short: as §1

[7] = system: giant foxtail (Setaria faberi); experiment: Test G Pre-Emergence Protocol; settings: Setaria faberi, pre-emergence, 312 h, evaluated after 13 days; for pest or weed control at 15.625 g/ha: 15.625 g ai/ha; for pest or weed control at 15.625 g/ha / pest or weed control at 250 g/ha: read-out: Foxtail, Giant damage rating (100=total damage to plant; 0=no damage to plant); for pest or weed control at 62.5 g/ha: 62.5 g ai/ha, 100=total damage to plant, 0=no damage to plant, read-out: plant damage rating, Foxtail, Giant; for pest or weed control at 250 g/ha: 250 g ai/ha
In short: (§2)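 Pre-emergence spray, 15.625/62.5/250 g/ha, vehicle acetone:water 50:50 + 0.5% Tween 20, applied 1 d after sowing. Glasshouse 24/16° C, 14 h light, 65% RH, watered twice daily. Visual damage rating at 13 d, 0–100 scale.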

corn (Zea mays) [8] = experiment: Test G Pre-Emergence Protocol; settings: Zea mays, pre-emergence, 312 h, evaluated after 13 days; for plant injury at 15.625 g/ha: 15.625 g ai/ha; for plant injury at 15.625 g/ha / plant injury at 250 g/ha: read-out: Corn damage rating (100=total damage to plant; 0=no damage to plant); for plant injury at 62.5 g/ha: 62.5 g ai/ha, 100=total damage to plant, 0=no damage to plant, read-out: plant damage rating, Corn; for plant injury at 250 g/ha: 250 g ai/ha
In short: as §2

[9] = system: redroot pigweed (Amaranthus retroflexus); experiment: Test G Pre-Emergence Protocol; settings: Amaranthus retroflexus, pre-emergence, 312 h, evaluated after 13 days; for pest or weed control at 15.625 g/ha: 15.625 g ai/ha; for pest or weed control at 15.625 g/ha / pest or weed control at 250 g/ha: read-out: Pigweed, Redroot damage rating (100=total damage to plant; 0=no damage to plant); for pest or weed control at 62.5 g/ha: 62.5 g ai/ha, 100=total damage to plant, 0=no damage to plant, read-out: plant damage rating, Pigweed, Redroot; for pest or weed control at 250 g/ha: 250 g ai/ha
In short: as §2

[10] = system: ivy-leaved morning glory (Ipomoea hederacea); experiment: Test G Pre-Emergence Protocol; settings: Ipomoea, pre-emergence, 312 h, evaluated after 13 days; for pest or weed control at 15.625 g/ha: 15.625 g ai/ha, read-out: Morning-glory, Ivy-leaved damage rating (100=total damage to plant; 0=no damage to plant); for pest or weed control at 62.5 g/ha: 62.5 g ai/ha, 100=total damage to plant, 0=no damage to plant, read-out: plant damage rating, Morningglory, Ivy-leaved; for pest or weed control at 250 g/ha: 250 g ai/ha, read-out: Morningglory, Ivy-leaved damage rating (100=total damage to plant; 0=no damage to plant)
In short: as §2

[11] = system: barnyardgrass (Echinochloa crus-galli); experiment: Test G Pre-Emergence Protocol; settings: Echinochloa crus-galli, pre-emergence, 312 h, evaluated after 13 days; for pest or weed control at 15.625 g/ha: 15.625 g ai/ha, read-out: Barnyard grass damage rating (100=total damage to plant; 0=no damage to plant); for pest or weed control at 62.5 g/ha: 62.5 g ai/ha, 100=total damage to plant, 0=no damage to plant, read-out: plant damage rating, Barnyardgrass; for pest or weed control at 250 g/ha: 250 g ai/ha, read-out: Barnyardgrass damage rating (100=total damage to plant; 0=no damage to plant)
In short: as §2

[12] = system: velvetleaf (Abutilon theophrasti); experiment: Test G Pre-Emergence Protocol; settings: Abutilon theophrasti, pre-emergence, 312 h, evaluated after 13 days; for pest or weed control at 15.625 g/ha: 15.625 g ai/ha; for pest or weed control at 15.625 g/ha / pest or weed control at 250 g/ha: read-out: Velvetleaf damage rating (100=total damage to plant; 0=no damage to plant); for pest or weed control at 62.5 g/ha: 62.5 g ai/ha, 100=total damage to plant, 0=no damage to plant, read-out: plant damage rating, Velvetleaf; for pest or weed control at 250 g/ha: 250 g ai/ha
In short: as §2

`CN1C[C@@H](c2cncc(F)c2)[C@H](C(=O)Nc2cccc(F)c2F)C1=O` (racemic) [Compound 1482] gave a pest or weed control at 15.625 g/ha [1] of 30%, a pest or weed control at 62.5 g/ha [1] of 30% and a pest or weed control at 250 g/ha [1] of 60%. The plant injury at 15.625 g/ha (corn (Zea mays) [2]) was 20%, the plant injury at 62.5 g/ha (corn (Zea mays) [2]) was 30% and the plant injury at 250 g/ha (corn (Zea mays) [2]) was 30%. It also gave a pest or weed control at 15.625 g/ha [3] of 0%, a pest or weed control at 62.5 g/ha [3] of 0% and a pest or weed control at 250 g/ha [3] of 0%. The pest or weed control at 15.625 g/ha [4] was 0%, the pest or weed control at 62.5 g/ha [4] was 0% and the pest or weed control at 250 g/ha [4] was 0%. It also gave a pest or weed control at 15.625 g/ha [5] of 30%, a pest or weed control at 62.5 g/ha [5] of 30% and a pest or weed control at 250 g/ha [5] of 60%. The pest or weed control at 15.625 g/ha [6] was 0%, the pest or weed control at 62.5 g/ha [6] was 0% and the pest or weed control at 250 g/ha [6] was 10%. It also gave a pest or weed control at 15.625 g/ha [7] of 20%, a pest or weed control at 62.5 g/ha [7] of 60% and a pest or weed control at 250 g/ha [7] of 90%. For the same compound, the plant injury at 15.625 g/ha (corn (Zea mays) [8]) was 30%, the plant injury at 62.5 g/ha (corn (Zea mays) [8]) was 40% and the plant injury at 250 g/ha (corn (Zea mays) [8]) was 30%. The pest or weed control at 15.625 g/ha [9] was 0%, the pest or weed control at 62.5 g/ha [9] was 0% and the pest or weed control at 250 g/ha [9] was 10%. The pest or weed control at 15.625 g/ha [10] was 0%, the pest or weed control at 62.5 g/ha [10] was 0% and the pest or weed control at 250 g/ha [10] was 10%. For the same compound, the pest or weed control at 15.625 g/ha [11] was 10%, the pest or weed control at 62.5 g/ha [11] was 30% and the pest or weed control at 250 g/ha [11] was 80%. For the same compound, the pest or weed control at 15.625 g/ha [12] was 0%, the pest or weed control at 62.5 g/ha [12] was 0% and the pest or weed control at 250 g/ha [12] was 10%.
For `CN1C[C@@H](c2ccc(C(F)(F)F)nc2)[C@H](C(=O)Nc2cccc(F)n2)C1=O` (racemic) [Compound 1491], the pest or weed control at 15.625 g/ha [1] was 0%, the pest or weed control at 62.5 g/ha [1] was 20% and the pest or weed control at 250 g/ha [1] was 60%. It also gave a plant injury at 15.625 g/ha (corn (Zea mays) [2]) of 0%, a plant injury at 62.5 g/ha (corn (Zea mays) [2]) of 0% and a plant injury at 250 g/ha (corn (Zea mays) [2]) of 0%. For the same compound, the pest or weed control at 15.625 g/ha [3] was 0%, the pest or weed control at 62.5 g/ha [3] was 0% and the pest or weed control at 250 g/ha [3] was 0%. It also gave a pest or weed control at 15.625 g/ha [4] of 0%, a pest or weed control at 62.5 g/ha [4] of 0% and a pest or weed control at 250 g/ha [4] of 10%. For the same compound, the pest or weed control at 15.625 g/ha [5] was 0%, the pest or weed control at 62.5 g/ha [5] was 20% and the pest or weed control at 250 g/ha [5] was 60%. It also gave a pest or weed control at 15.625 g/ha [6] of 0%, a pest or weed control at 62.5 g/ha [6] of 0% and a pest or weed control at 250 g/ha [6] of 0%. It also gave a pest or weed control at 15.625 g/ha [7] of 0%, a pest or weed control at 62.5 g/ha [7] of 50% and a pest or weed control at 250 g/ha [7] of 80%. It also gave a plant injury at 15.625 g/ha (corn (Zea mays) [8]) of 0%, a plant injury at 62.5 g/ha (corn (Zea mays) [8]) of 0% and a plant injury at 250 g/ha (corn (Zea mays) [8]) of 0%. It also gave a pest or weed control at 15.625 g/ha [9] of 0%, a pest or weed control at 62.5 g/ha [9] of 0% and a pest or weed control at 250 g/ha [9] of 0%. The pest or weed control at 15.625 g/ha [10] was 0%, the pest or weed control at 62.5 g/ha [10] was 0% and the pest or weed control at 250 g/ha [10] was 0%. For the same compound, the pest or weed control at 15.625 g/ha [11] was 0%, the pest or weed control at 62.5 g/ha [11] was 20% and the pest or weed control at 250 g/ha [11] was 90%. For the same compound, the pest or weed control at 15.625 g/ha [12] was 0%, the pest or weed control at 62.5 g/ha [12] was 0% and the pest or weed control at 250 g/ha [12] was 0%.
